The text below walks through data of PubChem BioAssay (NCI).

Some test systems named below: MALME-3M melanoma; MCF7 breast; MDA-MB-231 breast; OVCAR-5 ovarian; SK-OV-3 ovarian; SNB-19 CNS; T-47D breast; UO-31 renal.
Common to all, as to assay: NCI-60 cell line screen, 48 h

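Exposure lasted 48 hours, with cells grown in 96-well plates and compounds tested at five concentrations. GI50: concentration for 50% inhibition of growth. TGI is the concentration that stops growth completely.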 A value given as a limit tells only on which side of the number the result lay.

Take `Cc1ccc(/C=C/C(=N/N=C(N)N)c2ccccc2)cc1`: the GI50 in the assay on MALME-3M melanoma was 3.8 µM; in the assay on MCF7 breast, 0.465 µM; in the assay with MDA-MB-231 breast, 1.7 µM; in the assay with OVCAR-5 ovarian, 2.97 µM; in the assay on SK-OV-3 ovarian, 2.99 µM; in the assay with SNB-19 CNS, 4.21 µM. The GI50 with T-47D breast is 4.3 µM; with UO-31 renal it was 3.75 µM. Besides, the TGI in the assay with MALME-3M melanoma worked out at 20.2 µM; with MCF7 breast it was 12.4 µM; in the assay with MDA-MB-231 breast it was 4.56 µM; in the assay on OVCAR-5 ovarian it was 12.4 µM; in the assay with SK-OV-3 ovarian, 12.2 µM; in the assay with SNB-19 CNS, 17.3 µM. In addition, the TGI in the assay on T-47D breast worked out at 18.1 µM; with UO-31 renal, 17.2 µM.
Consider `CCCCCCCCCCC/C=C\C[C@H](O)C/C=C1/C(=O)C=C[C@@H]1C/C=C\CCCC(=O)OC`, for which the GI50 in the assay on MALME-3M melanoma was 0.803 µM; in the assay on MCF7 breast, 0.754 µM; with MDA-MB-231 breast, 0.895 µM; with OVCAR-5 ovarian, 1.7 µM; with SK-OV-3 ovarian, 5.78 µM; in the assay with SNB-19 CNS, 1.24 µM. In addition, the GI50 with T-47D breast was 0.796 µM; with UO-31 renal, 1.1 µM. Also, the TGI in the assay on MALME-3M melanoma turned out to be 2.41 µM; with MCF7 breast, 4.08 µM; in the assay with MDA-MB-231 breast, 2.61 µM; in the assay with OVCAR-5 ovarian it was 8.58 µM; in the assay on SK-OV-3 ovarian it was 21.5 µM; in the assay on SNB-19 CNS, 4.58 µM. For the same compound, the TGI in the assay on T-47D breast stood at 3.44 µM; with UO-31 renal it was 4.67 µM.
Consider `c1ccc(Nc2nc(-c3ccccn3)cs2)nc1`, for which the GI50 in the assay with MALME-3M melanoma is 0.156 µM; in the assay with MCF7 breast it was 0.508 µM; in the assay with MDA-MB-231 breast, 0.934 µM; in the assay on OVCAR-5 ovarian it was 2.35 µM; in the assay on SK-OV-3 ovarian, 0.74 µM; in the assay on SNB-19 CNS it was 0.997 µM. The figures for the GI50 in the assay with T-47D breast and with UO-31 renal were 0.698 µM and 0.0737 µM, respectively. For the same compound, the TGI in the assay with MALME-3M melanoma was 5.16 µM; in the assay with MCF7 breast, more than 100 µM; in the assay with MDA-MB-231 breast, more than 100 µM; in the assay with OVCAR-5 ovarian, more than 100 µM; in the assay with SK-OV-3 ovarian, more than 100 µM; in the assay with SNB-19 CNS, more than 100 µM. Moreover, the TGI in the assay with T-47D breast was more than 100 µM; in the assay with UO-31 renal, 0.711 µM.
Take `CC[C@@H](C(=O)[C@H](C)[C@H](O)[C@@H](C)[C@H]1O[C@H]([C@@H](CC)C(=O)O)CC[C@H]1C)C1O[C@]2(C=C[C@@H](O)[C@]3(CC[C@@](C)([C@H]4CC[C@](O)(CC)[C@H](C)O4)O3)O2)[C@H](C)C[C@@H]1C` (stereo not given in full): the GI50 was 0.241 µM in the assay with MALME-3M melanoma; 0.148 µM with MCF7 breast; 0.586 µM in the assay on MDA-MB-231 breast; 1.07 µM in the assay with OVCAR-5 ovarian; 4.1 µM with SK-OV-3 ovarian; 0.204 µM in the assay on SNB-19 CNS. Further, the results for the GI50 in the assay with T-47D breast and with UO-31 renal were 0.125 µM and 1.42 µM, respectively. The TGI came out at 1.35 µM in the assay with MALME-3M melanoma; 11.9 µM with MCF7 breast; 6.71 µM in the assay with MDA-MB-231 breast; 69.2 µM in the assay with OVCAR-5 ovarian; 51.1 µM in the assay on SK-OV-3 ovarian; 4.25 µM in the assay on SNB-19 CNS. The TGI was 16.7 µM in the assay with T-47D breast and 23.9 µM in the assay on UO-31 renal.
Consider `CCC(CCC(C)C1CCC2C3CC=C4CC(OC5OC(CO)C(O)C(O)C5O)CCC4(C)C3CCC12C)C(C)C` (stereo not given), for which the TGI with MALME-3M melanoma, in the assay on MCF7 breast, in the assay on MDA-MB-231 breast, in the assay with OVCAR-5 ovarian, with SK-OV-3 ovarian and in the assay on SNB-19 CNS was more than 100 µM in each case. The TGI in the assay with T-47D breast and with UO-31 renal was more than 100 µM each time.
In the case of `CC(=O)c1ccc(Nc2nc(Nc3ccc(F)cc3)nc(Nc3ccc(F)cc3)n2)cc1`, the GI50 in the assay on MALME-3M melanoma was 6.73 µM; in the assay with MCF7 breast it was 4.12 µM; in the assay on MDA-MB-231 breast, 6.81 µM; in the assay on OVCAR-5 ovarian it was 35.1 µM; with SK-OV-3 ovarian it was 10.5 µM; in the assay on SNB-19 CNS, 16.4 µM. The values for the GI50 in the assay on T-47D breast and with UO-31 renal were 4.77 µM and 7.68 µM, respectively. The TGI is 42.1 µM in the assay with MALME-3M melanoma; 61.2 µM in the assay on MCF7 breast; 42.8 µM in the assay with MDA-MB-231 breast; more than 100 µM in the assay on OVCAR-5 ovarian; 83.6 µM in the assay on SK-OV-3 ovarian; 53.8 µM in the assay on SNB-19 CNS. Besides, the TGI was 65.2 µM in the assay with T-47D breast and 24.3 µM in the assay with UO-31 renal.
Consider `Cc1cccc2nc3cccc(C(=O)NCCNCCNCCNC(=O)c4cccc5nc6cccc(C)c6nc45)c3nc12`, for which the GI50 with MALME-3M melanoma was less than 0.0302 µM; with MCF7 breast it was less than 0.01 µM; in the assay with MDA-MB-231 breast, 0.161 µM; in the assay on OVCAR-5 ovarian it was 0.12 µM; in the assay with SK-OV-3 ovarian it was 0.0933 µM; in the assay on SNB-19 CNS it was less than 0.01 µM. The GI50 is less than 0.0123 µM with T-47D breast and 0.0238 µM in the assay with UO-31 renal. In addition, the TGI with MALME-3M melanoma was 2.21 µM; in the assay with MCF7 breast, more than 33 µM; with MDA-MB-231 breast, 3.93 µM; with OVCAR-5 ovarian, 11.1 µM; in the assay on SK-OV-3 ovarian it was 12.8 µM; in the assay with SNB-19 CNS, 15.5 µM. In the assay on T-47D breast, this compound showed a TGI of 8.67 µM.
With `CO[C@]12C=C/C(=C(/C(=O)OCc3cccnc3)C(=O)CCCCCCCC[C@@]3(OC)C=C/C(=C(/C(=O)OCc4cccnc4)C(=O)CCCCCCCC1)O3)O2`, the GI50 was 1.11 µM with MALME-3M melanoma; 0.504 µM in the assay with MCF7 breast; 2.25 µM in the assay with MDA-MB-231 breast; 1.99 µM with OVCAR-5 ovarian; 2.43 µM in the assay on SK-OV-3 ovarian; 3.03 µM with SNB-19 CNS. For the same compound, the GI50 with T-47D breast is 2.21 µM; in the assay with UO-31 renal, 1.21 µM. Further, the TGI was 3.7 µM with MALME-3M melanoma; 8.89 µM with MCF7 breast; more than 50 µM in the assay on MDA-MB-231 breast; 15.5 µM in the assay with OVCAR-5 ovarian; more than 50 µM in the assay on SK-OV-3 ovarian; more than 50 µM with SNB-19 CNS. For the same compound, the TGI with T-47D breast was more than 50 µM; with UO-31 renal, 4.34 µM.
As to `COc1ccc2c(Cc3c4ccccc4cc4ccccc34)cncc2c1O`, the TGI in the assay on MALME-3M melanoma was 55 µM; in the assay with MCF7 breast, more than 38.2 µM; in the assay with MDA-MB-231 breast, 8.95 µM; in the assay with OVCAR-5 ovarian, more than 57.4 µM; in the assay with SK-OV-3 ovarian, more than 40.5 µM; with SNB-19 CNS, more than 41.6 µM. Further, the TGI in the assay with T-47D breast is more than 71.7 µM; in the assay with UO-31 renal, 34.9 µM.
With `CN1CC[C@]2(c3cccc(O)c3)CC(=O)/C(=C/c3ccccc3)[C@H]1C2`, the TGI with MALME-3M melanoma turned out to be 9.51 µM; with MCF7 breast it was 10.4 µM; in the assay with MDA-MB-231 breast it was 8.08 µM; in the assay on OVCAR-5 ovarian, 16.1 µM; in the assay with SK-OV-3 ovarian, 8.73 µM; with SNB-19 CNS, 17.4 µM. Besides, the TGI with T-47D breast is 7.44 µM; in the assay on UO-31 renal, 9.83 µM. In addition, the GI50 with OVCAR-5 ovarian was 4.34 µM; in the assay on SK-OV-3 ovarian, 2.81 µM; in the assay on SNB-19 CNS, 4.75 µM; with T-47D breast, 2.57 µM; in the assay with UO-31 renal, 2 µM.
